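Tested at 5 concentrations; 48 h exposure; 96-well plates; endpoints linearly interpolated, else capped at highest concentration. Here, GI50 denotes the concentration required for 50% inhibition of growth.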 The source made the active and inactive calls. Cut-off read from the data, not from the text of the source: active = GI50 up to about 1.1 µM and inactive = higher.
What was measured:
Assay in all cases: NCI tumour cell line growth inhibition, 48 h
A498 = test system: A498
CCRF-CEM = test system: CCRF-CEM
HCC 2998 = test system: HCC 2998
HCT-15 = test system: HCT-15
HOP-92 = test system: HOP-92
IGROV-1 = test system: IGROV-1
LOX IMVI = test system: LOX IMVI
NCI-H226 = test system: NCI-H226
NCI-H23 = test system: NCI-H23
OVCAR-3 = test system: OVCAR-3
RXF 393 = test system: RXF 393
SK-MEL-28 = test system: SK-MEL-28
SK-MEL-2 = test system: SK-MEL-2
SK-MEL-5 = test system: SK-MEL-5
SK-OV-3 = test system: SK-OV-3
SNB-75 = test system: SNB-75
SW-620 = test system: SW-620
U-251 = test system: U-251
UACC-257 = test system: UACC-257
SF-539 = test system: SF-539

Structure (SMILES) | GI50 (A498) | GI50 (CCRF-CEM) | GI50 (HCC 2998) | GI50 (HCT-15) [µM] | GI50 (HOP-92) | GI50 (IGROV-1) | GI50 (LOX IMVI) | GI50 (NCI-H226) | GI50 (NCI-H23) | GI50 (OVCAR-3) | GI50 (RXF 393) | GI50 (SK-MEL-28) | GI50 (SK-MEL-2) | GI50 (SK-MEL-5) | GI50 (SK-OV-3) | GI50 (SNB-75) | GI50 (SW-620) | GI50 (U-251) | GI50 (UACC-257) | GI50 (SF-539)
Oc1c(Br)ccc2cccnc12 | 8.81 µM (inactive) | 0.521 µM (active) | 15.1 µM (inactive) | 0.948 | 4.09 µM (inactive) | 0.938 µM (active) | 0.895 µM (active) | 5.19 µM (inactive) | 1.15 µM (inactive) | 1.32 µM (inactive) | 2.88 µM (inactive) | 20.5 µM (inactive) | 11.2 µM (inactive) | 2.38 µM (inactive) | 4.21 µM (inactive) | 10.4 µM (inactive) | 4.81 µM (inactive) | 2.4 µM (inactive) | 1.36 µM (inactive) | 
Cc1c(Cl)c(=O)oc2cc(OCC(=O)c3ccccc3)ccc12 | > 100 µM (inactive) | > 100 µM (inactive) | > 100 µM (inactive) | > 100 | 97.5 µM (inactive) | > 100 µM (inactive) |  | > 100 µM (inactive) | > 100 µM (inactive) | > 100 µM (inactive) | > 100 µM (inactive) | > 100 µM (inactive) | > 100 µM (inactive) | > 100 µM (inactive) | > 100 µM (inactive) |  | > 100 µM (inactive) | 33.2 µM (inactive) | > 100 µM (inactive) | > 100 µM (inactive)
CCOP(=O)(CN=C(c1ccccc1)c1ccccc1)OCC | 73.8 µM (inactive) | > 100 µM (inactive) | > 100 µM (inactive) | > 100 | > 100 µM (inactive) | > 100 µM (inactive) | > 100 µM (inactive) | > 100 µM (inactive) | > 100 µM (inactive) | 63.2 µM (inactive) |  | > 100 µM (inactive) | > 100 µM (inactive) | > 100 µM (inactive) | > 100 µM (inactive) | > 100 µM (inactive) | > 100 µM (inactive) | > 100 µM (inactive) | > 100 µM (inactive) | 
Cc1nn(C)c2c1C(=O)N(C)CC(=O)N2C | > 100 µM (inactive) | > 100 µM (inactive) | > 100 µM (inactive) | 69.7 | > 100 µM (inactive) | > 100 µM (inactive) |  |  | > 100 µM (inactive) | > 100 µM (inactive) | > 100 µM (inactive) | > 100 µM (inactive) |  | > 100 µM (inactive) | > 100 µM (inactive) | > 100 µM (inactive) | > 100 µM (inactive) | > 100 µM (inactive) | > 100 µM (inactive) | > 100 µM (inactive)
Nc1ccc(N(S(=O)(=O)c2ccccc2)S(=O)(=O)c2ccccc2)c(Cl)c1 | 25.2 µM (inactive) |  | 18.5 µM (inactive) | 55.7 | 70.3 µM (inactive) | 62.1 µM (inactive) | 68.1 µM (inactive) | 73.5 µM (inactive) | 55.8 µM (inactive) |  | > 100 µM (inactive) | 68.9 µM (inactive) | 31.3 µM (inactive) | 20.1 µM (inactive) |  | 42.2 µM (inactive) | 42.9 µM (inactive) | 39.3 µM (inactive) | 34.3 µM (inactive) | 69 µM (inactive)
C=CCC12CC(=O)C=C1CCC1(C2)OCCO1 (stereo not drawn) | > 100 µM (inactive) | > 100 µM (inactive) | > 100 µM (inactive) | > 100 |  | > 100 µM (inactive) |  | > 100 µM (inactive) |  | > 100 µM (inactive) | > 100 µM (inactive) | > 100 µM (inactive) | > 100 µM (inactive) | > 100 µM (inactive) | > 100 µM (inactive) | > 100 µM (inactive) | > 100 µM (inactive) | > 100 µM (inactive) | > 100 µM (inactive) | > 100 µM (inactive)
Cc1ccc(S(=O)(=O)N(C=O)N=C2CCN(Cc3ccccc3)CC2)cc1 | > 100 µM (inactive) | > 100 µM (inactive) | > 100 µM (inactive) | > 100 |  | > 100 µM (inactive) | > 100 µM (inactive) | > 100 µM (inactive) | > 100 µM (inactive) | > 100 µM (inactive) | > 100 µM (inactive) |  | > 100 µM (inactive) | > 100 µM (inactive) | > 100 µM (inactive) | > 100 µM (inactive) | > 100 µM (inactive) | > 100 µM (inactive) | > 100 µM (inactive) | > 100 µM (inactive)
O=C/C(=C1/C=Cc2cc([N+](=O)[O-])ccc2S1)c1ccccc1 | > 100 µM (inactive) | > 100 µM (inactive) | > 100 µM (inactive) | > 100 | > 100 µM (inactive) | > 100 µM (inactive) | > 100 µM (inactive) | > 100 µM (inactive) | > 100 µM (inactive) | > 100 µM (inactive) | > 100 µM (inactive) | > 100 µM (inactive) | > 100 µM (inactive) | > 100 µM (inactive) | > 100 µM (inactive) | 25.1 µM (inactive) |  | > 100 µM (inactive) | > 100 µM (inactive) | > 100 µM (inactive)

From ChEMBL document CHEMBL1201862, “PubChem BioAssay data set” (2004)
